The results in this text go back to patent US9382197B2, “Substituted hydroxamic acids and uses thereof” (Millennium Pharmaceuticals, Inc., priority 2010, dated 2016).

The first test addresses T1, purified human HDAC6 (Homo sapiens, UniProt Q9UBN7).
T1 construct: purchased BPS Bioscience 5006
T1 sequence (Q9UBN7 1-1215): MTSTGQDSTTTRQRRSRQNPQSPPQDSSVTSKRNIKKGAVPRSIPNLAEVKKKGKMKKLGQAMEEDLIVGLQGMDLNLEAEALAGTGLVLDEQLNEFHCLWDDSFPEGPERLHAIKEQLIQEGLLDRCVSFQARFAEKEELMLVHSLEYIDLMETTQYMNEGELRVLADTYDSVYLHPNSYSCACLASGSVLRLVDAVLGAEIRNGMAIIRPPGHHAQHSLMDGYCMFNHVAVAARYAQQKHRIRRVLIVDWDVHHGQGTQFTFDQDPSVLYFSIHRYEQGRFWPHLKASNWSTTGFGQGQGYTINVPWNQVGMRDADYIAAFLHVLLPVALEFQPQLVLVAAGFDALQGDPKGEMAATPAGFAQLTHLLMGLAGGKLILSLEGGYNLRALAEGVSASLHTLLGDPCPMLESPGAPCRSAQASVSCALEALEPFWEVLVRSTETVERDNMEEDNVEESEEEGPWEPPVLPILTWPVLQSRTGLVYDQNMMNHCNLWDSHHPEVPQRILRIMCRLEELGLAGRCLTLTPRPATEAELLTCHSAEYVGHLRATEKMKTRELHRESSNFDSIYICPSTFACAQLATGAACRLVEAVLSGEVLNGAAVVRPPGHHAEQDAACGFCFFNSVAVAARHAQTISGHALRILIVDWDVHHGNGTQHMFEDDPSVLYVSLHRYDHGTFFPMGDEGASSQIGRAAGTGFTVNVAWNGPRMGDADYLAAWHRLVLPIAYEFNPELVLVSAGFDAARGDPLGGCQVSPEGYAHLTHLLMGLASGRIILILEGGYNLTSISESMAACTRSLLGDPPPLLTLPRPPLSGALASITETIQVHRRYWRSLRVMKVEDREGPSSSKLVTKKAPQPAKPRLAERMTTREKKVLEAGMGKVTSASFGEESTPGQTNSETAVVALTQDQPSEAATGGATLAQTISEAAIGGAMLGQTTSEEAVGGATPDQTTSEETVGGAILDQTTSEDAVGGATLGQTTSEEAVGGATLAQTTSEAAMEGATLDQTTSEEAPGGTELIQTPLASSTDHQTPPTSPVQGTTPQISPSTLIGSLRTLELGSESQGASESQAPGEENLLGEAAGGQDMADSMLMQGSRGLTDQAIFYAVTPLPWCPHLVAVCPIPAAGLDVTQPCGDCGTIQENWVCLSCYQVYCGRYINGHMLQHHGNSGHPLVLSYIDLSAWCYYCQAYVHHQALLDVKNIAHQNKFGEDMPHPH
In words: HDAC6 Enzyme Assay. It is filed as biochemical. The note with it: bin: greater than 500 nM and less than 1 μM (lower bound in nM, upper bound in μM). In outline:
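Purified human HDAC6 incubated 1 h at 30 °C with Ac-Arg-Gly-Lys(Ac)-AMC and compound; trichostatin A stop, trypsin release of AMC, fluorescence Ex 340/Em 460 nm. IC50 from concentration–response relative to DMSO.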
Broadly, the IC50 is the concentration that gives 50% inhibition. Low readings indicate inhibition by little substance, high ones a need for much substance. Turning to `CC(NC(=O)c1cc(C(C)(C)C)nn1C)c1cccc(C(=O)NO)c1` (stereo not shown) [Compound I-309, 3-tert-butyl-N-(1-{3-[(hydroxyamino)carbonyl]phenyl}ethyl)-1-methyl-1H-pyrazole-5-carboxamide], the IC50 was in the range of 500 to 1000 nM.

The same test, now with this note: bin: greater than 1 μM.
For `CC(NC(=O)C1CCCC1)c1cccc(C(=O)NO)c1` (stereo not shown) [Compound I-311, 3-{1-[(cyclopentylcarbonyl)amino]ethyl}-N-hydroxybenzamide], the IC50 is greater than 1000 nM.
On the same count and under the same terms, with `C[C@@H](NC(=O)C12CC3CC(CC(C3)C1)C2)c1cccc(C(=O)NO)c1` [Compound I-312, N-((1R)-1-{3-[(hydroxyamino)carbonyl]phenyl}ethyl)adamantane-1-carboxamide] the figure was greater than 1000 nM; with `CC(NC(=O)CC1CCOCC1)c1ccc(C(=O)NO)cc1` (stereo not shown) [Compound I-313, N-hydroxy-4-{1-[(tetrahydro-2H-pyran-4-ylacetyl)amino]ethyl}benzamide], greater than 1000 nM; with `CC(NC(=O)Cc1cccc(C(F)(F)F)c1)c1cccc(C(=O)NO)c1` (stereo not shown) [Compound I-314, N-hydroxy-3-[1-({[3-(trifluoromethyl)phenyl]acetyl}amino)ethyl]benzamide], greater than 1000 nM.
`C[C@@H](NC(=O)NC(C)(C)C)c1cccc(C(=O)NO)c1` [Compound I-320, 3-((1R)-1-{[(tert-butylamino)carbonyl]amino}ethyl)-N-hydroxybenzamide] returned an IC50 greater than 1000 nM.
On the same count and under the same terms, with `O=C(NO)c1ccc([C@@H](NC(=O)C23CC4CC(CC(C4)C2)C3)C2CC2)cc1` [Compound I-322, N-((S)-cyclopropyl{4-[(hydroxyamino)carbonyl]phenyl}methyl)adamantane-1-carboxamide] the figure was greater than 1000 nM; with `CC(C)C(NC(=O)c1ccc(-c2ccccc2)cc1)c1cccc(C(=O)NO)c1` (stereo not shown) [Compound I-323, N-(1-{3-[(hydroxyamino)carbonyl]phenyl}-2-methylpropyl)biphenyl-4-carboxamide], greater than 1000 nM.
Still for that read-out and setting: with `CC(NC(=O)c1cc2oc(-c3ccc(C(C)(C)C)cc3)cc2n1C)c1cccc(C(=O)NO)c1` (stereo not shown) [Compound I-324, 2-(4-tert-butylphenyl)-N-(1-{3-[(hydroxyamino)carbonyl]phenyl}ethyl)-4-methyl-4H-furo[3,2-b]pyrrole-5-carboxamide] the figure was greater than 1000 nM; with `Cc1noc(C)c1C(=O)NC(C)c1ccc(C(=O)NO)cc1` (stereo not shown) [Compound I-326, N-(1-{4-[(hydroxyamino)carbonyl]phenyl}ethyl)-3,5-dimethylisoxazole-4-carboxamide], greater than 1000 nM; with `CC(NC(=O)CC(C)(C)C)c1cccc(C(=O)NO)c1` (stereo not shown) [Compound I-333, 3-{1-[(3,3-dimethylbutanoyl)amino]ethyl}-N-hydroxybenzamide], greater than 1000 nM.

Still in this test, the particulars now being: purified human HDAC6, substrate Ac-Arg-Gly-Lys(Ac)-AMC, 1 hour at 30° C.; reported as bins.
Compound `Cc1c(C(=O)N[C@@H](c2ccc(C(=O)NO)cc2)C(F)(F)F)oc2ccccc12` [Compound I-304, 3-methyl-N-((1S)-2,2,2-trifluoro-1-{4-[(hydroxyamino)carbonyl]phenyl}ethyl)-1-benzofuran-2-carboxamide] gave an IC50 of less than 100 nM.
The same measure, in the same setting: with `Cc1onc(-c2ccccc2)c1NC(=O)NC(C)c1ccc(C(=O)NO)cc1` (stereo not shown) [Compound I-305, N-hydroxy-4-[1-({[(5-methyl-3-phenylisoxazol-4-yl)amino]carbonyl}amino)ethyl]benzamide] the figure was 100 to 500 nM.
For `COc1cccc2cc(C(=O)NC(c3ccc(C(=O)NO)cc3)C(C)C)oc12` (stereo not shown) [Compound I-306, N-(1-{4-[(hydroxyamino)carbonyl]phenyl}-2-methylpropyl)-7-methoxy-1-benzofuran-2-carboxamide], the IC50 is less than 100 nM.
On the same count and under the same terms, with `Cc1c(C(=O)N[C@@H](c2ccc(C(=O)NO)cc2)C(C)C)sc2ccccc12` [Compound I-307, N-((1R)-1-{4-[(hydroxyamino)carbonyl]phenyl}-2-methylpropyl)-3-methyl-1-benzothiophene-2-carboxamide] the figure was less than 100 nM.
The same measure, in the same setting: under `CC(C)(C)C(NC(=O)c1cc2ccccc2s1)c1ccc(C(=O)NO)cc1` (stereo not shown) [Compound I-308, N-(1-{4-[(hydroxyamino)carbonyl]phenyl}-2,2-dimethylpropyl)-1-benzothiophene-2-carboxamide] stands less than 100 nM.
Same read-out and setting: with `Cc1cc(C(=O)NC(c2ccc(C(=O)NO)cc2)C(C)(C)C)c(C)[nH]1` (stereo not shown) [Compound I-310, N-(1-{4-[(hydroxyamino)carbonyl]phenyl}-2,2-dimethylpropyl)-2,5-dimethyl-1H-pyrrole-3-carboxamide] the figure was 100 to 500 nM.
`CC(NS(=O)(=O)c1ccccc1)c1ccc(C(=O)NO)cc1` (stereo not shown) [Compound I-315, N-hydroxy-4-{1-[(phenylsulfonyl)amino]ethyl}benzamide] returned an IC50 of 100 to 500 nM.
The same measure, in the same setting: under `Cc1cccc(CNC(=O)NC(C)c2ccc(C(=O)NO)cc2)c1` (stereo not shown) [Compound I-316, N-hydroxy-4-[1-({[(3-methylbenzyl)amino]carbonyl}amino)ethyl]benzamide] stands 100 to 500 nM.
Compound `C[C@@H](NC(=O)c1cc2ccccc2o1)c1ccc(C(=O)NO)cc1` [Compound I-317, N-((1R)-1-{4-[(hydroxyamino)carbonyl]phenyl}ethyl)-1-benzofuran-2-carboxamide] returned an IC50 of less than 100 nM.
Compound `CCc1cc(C(=O)NC(c2ccc(C(=O)NO)cc2)C(C)(C)C)n(C)n1` (stereo not shown) [Compound I-318, 3-ethyl-N-(1-{4-[(hydroxyamino)carbonyl]phenyl}-2,2-dimethylpropyl)-1-methyl-1H-pyrazole-5-carboxamide] showed an IC50 of 100 to 500 nM.
Same read-out and setting: under `CC(C)(C)C(NC(=O)c1c[nH]c2ccccc12)c1ccc(C(=O)NO)cc1` (stereo not shown) [Compound I-319, N-(1-{4-[(hydroxyamino)carbonyl]phenyl}-2,2-dimethylpropyl)-1H-indole-3-carboxamide] stands less than 100 nM; under `C[C@@H](NC(=O)c1cc2ccccc2s1)c1cccc(C(=O)NO)c1` [Compound I-321, N-((1R)-1-{3-[(hydroxyamino)carbonyl]phenyl}ethyl)-1-benzothiophene-2-carboxamide], less than 100 nM; under `CC(NC(=O)c1ccc2ccccc2c1)c1ccc(C(=O)NO)cc1` (stereo not shown) [Compound I-327, N-(1-{4-[(hydroxyamino)carbonyl]phenyl}ethyl)-2-naphthamide], less than 100 nM.
Turning to `CC(C)[C@@H](NC(=O)C12CC3CC(CC(C3)C1)C2)c1ccc(C(=O)NO)cc1` [Compound I-328, N-((1R)-1-{4-[(hydroxyamino)carbonyl]phenyl}-2-methylpropyl)adamantane-1-carboxamide], the IC50 is less than 100 nM.
Same read-out and setting: with `Cc1ccc2[nH]c(C(=O)NC(c3ccc(C(=O)NO)cc3)C(C)(C)C)c(C)c2c1` (stereo not shown) [Compound I-329, N-(1-{4-[(hydroxyamino)carbonyl]phenyl}-2,2-dimethylpropyl)-3,5-dimethyl-1H-indole-2-carboxamide] the figure was less than 100 nM; with `C[C@@H](NC(=O)c1cc2ccccc2n1C)c1cccc(C(=O)NO)c1` [Compound I-330, N-((1R)-1-{3-[(hydroxyamino)carbonyl]phenyl}ethyl)-1-methyl-1H-indole-2-carboxamide], 100 to 500 nM.
Compound `CC(C)C(NC(=O)c1cccc2ccccc12)c1ccc(C(=O)NO)cc1` (stereo not shown) [Compound I-331, N-(1-{4-[(hydroxyamino)carbonyl]phenyl}-2-methylpropyl)-1-naphthamide] registered an IC50 of 100 to 500 nM.
The same measure, in the same setting: under `CC(C)[C@@H](NC(=O)c1cc2oc(-c3ccccc3)cc2n1C)c1ccc(C(=O)NO)cc1` [Compound I-332, N-((1R)-1-{4-[(hydroxyamino)carbonyl]phenyl}-2-methylpropyl)-4-methyl-2-phenyl-4H-furo[3,2-b]pyrrole-5-carboxamide] stands less than 100 nM; under `CC(NC(=O)Nc1cc(C(F)(F)F)ccc1F)c1ccc(C(=O)NO)cc1` (stereo not shown) [Compound I-334, 4-{1-[({[2-fluoro-5-(trifluoromethyl)phenyl]amino}carbonyl)amino]ethyl}-N-hydroxybenzamide], less than 100 nM; under `O=C(NO)c1ccc([C@H](NC(=O)C23CC4CC(CC(C4)C2)C3)c2ccccc2)cc1` [Compound I-336, N-[(R)-{4-[(hydroxyamino)carbonyl]phenyl}(phenyl)methyl]adamantane-1-carboxamide], 100 to 500 nM.
